Source: publication PMC11187126, “Structure and dynamics of the pyroglutamylated RF-amide peptide QRFP receptor GPR103” (Nature Communications, 2024)
Where two headings read alike, the source gives them in different places. No end group written: not given here.

Molecular target: T1, GPR103 ΔCterm (Homo sapiens, UniProt Q96P65)
T1 construct: we truncated the C-terminal residues after G366 of human GPR103; expressed in transfected cells; host or cells: HEK293 cells, pCAGGS vector
T1 sequence (Q96P65 1-366): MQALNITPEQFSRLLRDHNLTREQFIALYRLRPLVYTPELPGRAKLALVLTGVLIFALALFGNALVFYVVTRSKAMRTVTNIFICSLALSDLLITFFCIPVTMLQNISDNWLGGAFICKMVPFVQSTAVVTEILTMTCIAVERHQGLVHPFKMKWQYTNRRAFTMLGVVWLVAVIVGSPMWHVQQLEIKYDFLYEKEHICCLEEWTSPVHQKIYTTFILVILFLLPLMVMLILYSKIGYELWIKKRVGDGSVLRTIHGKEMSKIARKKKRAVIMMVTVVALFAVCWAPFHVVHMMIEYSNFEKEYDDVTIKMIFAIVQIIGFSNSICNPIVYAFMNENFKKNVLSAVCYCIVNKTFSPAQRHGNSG
Assay: TGFα shedding assay; Exp. level WT (1:20)
Type: cell-based
Procedure: For the TGFα shedding assay and the flow cytometry analysis, we used human full-length QRFPR-encoding plasmids. Specifically, GPR103 was N-terminally modified with an HA signal sequence followed by a FLAG epitope and then a flexible linker ([…]; the FLAG epitope is underlined) and inserted into the pCAGGS vector. Plasmid encoding GPR103 mutants were generated using Quickchange Site-Directed Mutagensis kit (Agilent).
The TGFα shedding assay was performed as described previously with minor modifications. Plasmid transfection was performed in a 6-well plate with a mixture of 500 ng (per well in a 6-well plate) AP-TGFα-encoding plasmid and 200 ng GPR103-encoding plasmid. After 1-day culture, the transfected cells were harvested by trypsinization, pelleted by centrifugation at 190 × g for 5 min, and washed once with 5 mM HEPES (pH 7.4)-containing Hank’s Balanced Salt Solution (HBSS). After centrifugation, the cells were resuspended in 8 mL of the HEPES-containing HBSS. The cell suspension was seeded in a 96-well culture plate (cell plate) at a volume of 90 μL (per well hereafter) and incubated in a 37 °C incubator with 5% CO2 for 30 min. […] After spinning the cell plates at 190 × g for 2 min, 80 μL of conditioned media was transferred to an empty 96-well plate (conditioned media (CM) plate). Then, 80 μL of AP reaction solution (10 mM p-nitrophenylphosphate (p-NPP), 120 mM Tris-HCl (pH 9.5), 40 mM NaCl, and 10 mM MgCl2) was dispensed into the cell plates and the CM plates. Absorbance at 405 nm of the plates was measured using a microplate reader (SpectraMax 340 PC384, Molecular Devices) before and after 1-h incubation at room temperature. Ligand-induced AP-TGFα release was calculated by subtracting spontaneous AP-TGFα release signal from ligand-induced AP-TGFα release signal. The AP-TGFα release signals were fitted to a four-parameter sigmoidal concentration–response curve, using the Prism 10 software (GraphPad Prism). For each replicate experiment, the pEC50 parameter (negative logarithmic values of EC50 values) of the individual GPR103 mutants were normalized to that of the wild-type GPR103 performed in parallel, and resulting ∆pEC50 values were used to denote ligand response activity of the mutants. […]
Exp. le vel: WT (1:5 0)Exp. le vel: WT (1:5 0)Exp. le vel: WT (1:5 0)Exp. le vel: WT (1:2 0)Exp. le vel: WT (1:2 0)Exp. le vel: WT (1:1 0) […]
L1 4N - t e r mA F2 5N - t e r mA I 2 6N - t e r mA Y 2 9N - t e r mA C 9 82 .5 7A T10 22 .6 1A Exp . l eve l: WT (1 :5)Exp . l evel : >WT (1 :1)Exp. le vel: WT (1:2 0)Exp. le vel: WT (1:2 0)Exp. le vel: WT (1:5 0)Exp . l eve l: WT (1 :1) […]
Exp. le vel: WT (1:1 0)Exp. le vel: WT (1:2 0) C 1 1 83 .2 5AExp. le vel: WT (1:5 0)Exp. le vel: WT (1:5 0)Exp. le vel: WT (1:2 0)Exp . l eve l: WT (1 :5) […]
Exp. le vel: WT (1:5 0)Exp. le vel: WT (1:1 0)Exp. le vel: WT (1:5 0) E203ECL2AExp . l evel : >WT (1 :1)Exp. le vel: WT (1:5 0)Exp. le vel: WT (1:5 0) […]
Exp . l eve l: WT (1 :1) F28Exp. le vel: WT (1:5 0) C 2 8 56 .4 7AExp. le vel: WT (1:2 0) WExp. le vel: WT (1:2 0) F28Exp. le vel: WT (1:5 0)Exp . l evel : >WT (1 :1) […]
Exp. le vel: WT (1:5 0)Exp. le vel: WT (1:5 0) C 3 2 77 .4 8AExp . l eve l: WT (1 :5)Exp . l evel : >WT (1 :1)Exp . l evel : >WT (1 :1) […]
Suppl eme nt ary Figure 1 | Mutational analysis of GPR103. […]
mutants. Data are presented as mean values ± SEM, normally n=3-5; dots), each performed in triplicate. b-d Cell-surface expression (b) and QRFP26-in-duced activation of GPR103 (c, d) were analyzed by the flow cytometry and the TGFα shedding assay, respectively. From the concentration–response curves (a), Emax (c) and ΔpEC50 (d) values relative to the wild type were calculated. Colors in the mutant bars indicate an expression level matching to that of titrated wild type. Statistical analyses were performed using the ordinary one-way ANOVA followed by Dunnett tests with the expression-matched […]

Substance: TSGPLGNLAEELNGYSRKKGGFSFRF-NH2 [QRFP26]
- Emax (Exp. #1): 83.85 % WT
- Emax (Exp. #2): 86.40 % WT
- Emax (Exp. #3): 89.99 % WT
- Emax (mean, read-out: Emax): 86.8%
- EC50 (n = 3): 11.2 nM
